This note sets out measurements from patent publication US12150973B2, “OCA-B peptide conjugates and methods of treatment” (priority 2018, dated 2024).

One series relates to female NOD mice. The experiment in a line: NOD mouse model of newly manifested type 1 diabetes. To be noted: for pancreatic T cell infiltration (total numbers and percentages): flow cytometry; for pancreatic T cell infiltration (total numbers and percentages) / elevated blood glucose: 12 hr after final injection; for elevated blood glucose: female 14-18 week-old NOD mice, glucose newly risen above 225 mg/dL, three intravenous injections of 20 mg/kg spaced by 12 hr. Format: in vivo. On the procedure: (§1) FIGS. 3A-D show OCA-B inhibitors and results using these peptides in primary CD4 T cells and in a NOD mouse model. […] Peptides #2 (SEQ ID NO: 2) and #3 (SEQ ID NO: 3) show efficacy. Arrows indicate position of mutant in FIG. 2C. Below: Il2 expression in primary CD4 T cells treated with 25 μM peptide #2 measured by RT-qPCR. […] In these animals, most pancreatic beta function is lost, and the diabetes arises from autoimmune inflammation (insulitis) in the pancreas, making the remaining beta cells nonfunctional.
Blood collection occurred prior to 2nd injection and 12 hr after final injection. […] Il2 gene expression was measured by TaqMan RT-qPCR. […] FIGS. 9D and E show similar analysis conducted using pancreatic lymph nodes (PLNs).
The peptide was synthesized and purified for an in vivo experiment. T1D onset in NOD mice is spontaneous and acute, allowing the administration of the peptide as symptoms arise. Female 14-18 week-old NOD mice whose glucose levels were newly-risen above 225 mg/dL but were still below 275 mg/dL were treated with three intravenous injections of 20 mg/kg peptide or Tat-only peptide control. The peptide half-life in serum was predicted to be ˜5 hr, and therefore the injections were spaced by 12 hr. Twelve hours after the final injection, blood glucose was collected and flow cytometry performed on the pancreas and pancreatic lymph nodes (PLNs). Strikingly, the inhibitor reversed elevated blood glucose (FIG. 3B; also see, FIG. 9), pancreatic T cell infiltration (both total numbers and percentages, FIG. 3C and not shown; also see, FIG. 9) and pro-inflammatory IFNγ and IL-17A cytokine production (not shown). Control peptide at the same concentration had no effect. […] OCA-B levels in B cells are at least 50-fold higher than in T cells (Immgen), making it likely that the observed effects are due to competitive inhibition in T cells. […] This peptide was used as a proto-drug to assess function and possible side effects.
(In flow cytometry, cells or beads pass a laser one at a time.)

The test system of a further series is primary CD4 T cells. The experiment in a line: Il2 and Ifng expression in restimulated primary CD4 T cells (RT-qPCR). In kind it is cell-based. As for the experimental part:
as §1
Disclosed herein are methods that can be carried out to determine the efficacy of one or more peptides for their ability to block the interaction of OCA-B and Jmjd1a or Oct1. In some aspects, the method can be, for low-throughput studies, treating primary human or mouse CD4 T cells that have been previously stimulated and rested in culture with the test peptide (10-50 μM), and re-stimulating cells with CD3/CD28 antibodies in the presence of inhibitor. Efficacy can be determined by suppression of e.g., Il2 gene expression in T cells receiving a second stimulation, phenocopying the OCA-B germline deficient mouse (as shown in FIG. 3A). […]

The test system of the next series is CD4 T cell. The experiment in a line: Viability, morphology and expansion of peptide-treated CD4 T cells. Format: cell-based. The settings on record: 25 μM peptide. The source says:
Peptides were designed overlapping the OCA-B surface responsible for Jmjd1a binding, and were synthesized as Tat-fusions for membrane permeability (FIG. 3A). […] Treated cells show no changes in viability, morphology or expansion (not shown). Peptide #2 was used for subsequent experiments.

[1] abbreviates: NOD mice, three intravenous injections of 20 mg/kg, pancreas.
Where [2] appears, read: NOD mice, three intravenous injections of 20 mg/kg, PLNs.

As to “GRKKRRQRRRGY [Tat-only peptide control, reference compound]”, in the series on female NOD mice (setting [1]), the “pro-inflammatory IFNγ and IL-17A cytokine production” value is “no effect”; the “pancreatic T cell infiltration (total numbers and percentages)” value was “no effect”. In the series with female NOD mice (NOD mouse model, three injections, short time interval), the “T1D progression / emergence” value is given as “progress”. Also, the elevated blood glucose entry in the series on female NOD mice was “no effect”.
Regarding “ARPYQGVRVKEPVKELLRRKRGH [Peptide #3, OCA-B fragment synthesized as Tat fusion]”, in the series on primary CD4 T cells (25 μM peptide, Tat-fusion, compared with OCA-B null phenotype), the “Il2 and Ifng expression following CD4 T cell restimulation” value is reported as “phenocopies the OCA-B null phenotype”. In addition, the “efficacy (Il2 expression in primary CD4 T cells)” value in the series with primary CD4 T cells (peptides synthesized as Tat fusions, FIG. 3A) is given as “show efficacy”. Moreover, the “changes in viability, morphology or expansion of treated cells” value in the series on CD4 T cell is given as “no changes”.
Take “VKELLRRKRGH-GSG(linker)-GRKKRRQRRRGY(Tat) (VKELLRRKRGHGSGGRKKRRQRRRGY) [SEQ ID NO: 10, OCA-B/Jmjd1a interface peptide fused to Tat peptide through a GSG linker]”: in the series on female NOD mice (setting [2]), the “T cell numbers or percentages in pancreatic lymph nodes (PLNs)” value is recorded as “unaffected” and the “pro-inflammatory cytokine production in pancreatic lymph nodes (PLNs)” value is “unaffected”. Besides, the “pancreatic T cell infiltration (total numbers and percentages)” value with female NOD mice (setting [1]) is reported as “reduction”. For the same substance, the elevated blood glucose entry in the series on female NOD mice is given as “strong efficacy”.
